Results reported in ChEMBL document CHEMBL3045853, “Bifenthrin longevity at the termiticidal application rate” (2012).
Activity calls are given as the source filed them. The calls are words filed in the database; no cut-off is given here.

Columns and labels:
Reticulitermes flavipes [1] = assay: Termiticidal activity against Reticulitermes flavipes after 7 days by forced exposure test; format: functional, organism-based
Reticulitermes flavipes [2] = assay: Termiticidal activity against Reticulitermes flavipes after 3 days by forced exposure test; format: functional
Reticulitermes flavipes [3] = assay: Termiticidal activity against Reticulitermes flavipes assessed as mortality at 0.6 ug/g after 10 months by forced exposure test; format: functional
Reticulitermes flavipes [4] = assay: Termiticidal activity against Reticulitermes flavipes assessed as mortality at 0.6 ug/g by forced exposure test; format: functional
Reticulitermes flavipes [5] = assay: Termiticidal activity against Reticulitermes flavipes assessed as mortality at 0.6 ug/g after 5 months by forced exposure test; format: functional
Reticulitermes flavipes [6] = assay: Termiticidal activity against Reticulitermes flavipes assessed as mortality at 0.6 ug/g after 3 days by forced exposure test; format: functional
Reticulitermes flavipes [7] = assay: Termiticidal activity against Reticulitermes flavipes assessed as mortality after 4 days by forced exposure test; format: functional
Reticulitermes flavipes [8] = assay: Termiticidal activity against Reticulitermes flavipes assessed as mortality at 0.06 ug/g after 7 days by forced exposure test; format: functional
Reticulitermes flavipes [9] = assay: Termiticidal activity against Reticulitermes flavipes assessed as mortality at 6.9 ug/g after 7 days by forced exposure test; format: functional
Reticulitermes flavipes [10] = assay: Termiticidal activity against Reticulitermes flavipes at 0.69 ug/g after 7 days by forced exposure test; format: functional, organism-based

**Q.** For `Cc1c(COC(=O)[C@@H]2[C@H](/C=C(\Cl)C(F)(F)F)C2(C)C)cccc1-c1ccccc1` [BIFENTHRIN], which Activity (Reticulitermes flavipes [1]) is on record?
**A.** Its Activity is “inactive”.

**Q.** And the LC50 (Reticulitermes flavipes [2])?
**A.** Its LC50 is 0.074 µg/g.

**Q.** And the LC95 (Reticulitermes flavipes [2])?
**A.** Its LC95 is 0.724 µg/g.

**Q.** What about the mortality (Reticulitermes flavipes [3]) of the same compound?
**A.** Its mortality is 73.9%.

**Q.** And the mortality (Reticulitermes flavipes [4])?
**A.** The mortality was 100%.

**Q.** What about the mortality (Reticulitermes flavipes [5]) of the same compound?
**A.** Its mortality is 63%.

**Q.** How did the mortality (Reticulitermes flavipes [6]) turn out when `N#Cc1nn(-c2c(Cl)cc(C(F)(F)F)cc2Cl)c(N)c1[S+]([O-])C(F)(F)F` (configuration not stated) [FIPRONIL] was run?
**A.** The mortality was 100%.

**Q.** What about the LC50 (Reticulitermes flavipes [7]) of the same compound?
**A.** Its LC50 is 0.49 µg/g.

**Q.** And the mortality (Reticulitermes flavipes [8])?
**A.** Its mortality is 100%.

**Q.** What does the source list for `O=[N+]([O-])/N=C1\NCCN1Cc1ccc(Cl)nc1` [IMIDACLOPRID]?
**A.** Activity (Reticulitermes flavipes [2]): inactive; mortality (Reticulitermes flavipes [9]): 80%; Activity (Reticulitermes flavipes [10]): inactive
